# Data: ChEMBL document CHEMBL6087433, “Discovery of ART0380, a Potent and Selective ATR Kinase Inhibitor Undergoing Phase 2 Clinical Studies for the Treatment of Advanced or Metastatic Solid Cancers” (J Med Chem, 2024)
# Columns and labels:
# [1] = in vitro; conditions: rat, plasma
# Description: Protein binding in rat plasma assessed as free fraction at 5 uM incubated for 5 hrs by equilibrium dialysis method
# [2] = molecular target: CYP3A4 (Homo sapiens, UniProt P08684); experiment: in vitro; conditions: human liver microsomes, probe midazolam
# [3] = molecular target: Voltage-gated inwardly rectifying potassium channel KCNH2 (Homo sapiens, UniProt Q12809)
# Description: Inhibition of hERG transfected in CHO cells by patch clamp automated cellular electrophysiology analysis
# [4] = in vivo; conditions: cynomolgus monkey, iv, 1 mg/kg
# Description: Volume of distribution at steady state in cynomolgus monkey at 1 mg/kg, iv
# [5] = molecular target: Phosphatidylinositol 4,5-bisphosphate 3-kinase catalytic subunit beta isoform (Homo sapiens, UniProt P42338)
# Description: Inhibition of PI3Kbeta (unknown origin) by ADP-Glo assay
# [6] = in vivo; conditions: CD-1, mouse, iv, 1 mg/kg
# Description: Half life in CD-1 mouse at 1 mg/kg, iv
# [7] = molecular target: Cytochrome P450 2D6 (Homo sapiens, UniProt P10635)
# [8] = in vivo; conditions: cynomolgus monkey, po, 10 mg/kg
# [9] = in vivo; conditions: Sprague-Dawley, rat, iv, 1 mg/kg
# Description: Half life in Sprague-Dawley rat at 1 mg/kg, iv
# [10] = molecular target: Phosphatidylinositol 4,5-bisphosphate 3-kinase catalytic subunit alpha isoform (Homo sapiens, UniProt P42336)
# Description: Inhibition of PI3Kalpha (unknown origin) by ADP-Glo assay
# [11] = in vitro; conditions: human, hepatocytes
# Description: Intrinsic clearance in human hepatocytes
# [12] = in vitro; conditions: mouse, hepatocytes
# Description: Intrinsic clearance in mouse hepatocytes
# [13] = in vivo; conditions: CD-1, mouse, po, 10 mg/kg
# [14] = in vivo; conditions: Sprague-Dawley, rat, po, 10 mg/kg
# [15] = in vivo; conditions: CD-1, mouse, po, 10 mg/kg; remark: listed apart in the source
# [16] = physchem; conditions: Simulated Gastric Fluid
# Description: Thermodynamic solubility of the compound in Simulated Gastric Fluid
# [17] = molecular target: T1, Cytochrome P450 2C8 (Homo sapiens, UniProt P10632)
# T1 sequence (P10632 whole entry): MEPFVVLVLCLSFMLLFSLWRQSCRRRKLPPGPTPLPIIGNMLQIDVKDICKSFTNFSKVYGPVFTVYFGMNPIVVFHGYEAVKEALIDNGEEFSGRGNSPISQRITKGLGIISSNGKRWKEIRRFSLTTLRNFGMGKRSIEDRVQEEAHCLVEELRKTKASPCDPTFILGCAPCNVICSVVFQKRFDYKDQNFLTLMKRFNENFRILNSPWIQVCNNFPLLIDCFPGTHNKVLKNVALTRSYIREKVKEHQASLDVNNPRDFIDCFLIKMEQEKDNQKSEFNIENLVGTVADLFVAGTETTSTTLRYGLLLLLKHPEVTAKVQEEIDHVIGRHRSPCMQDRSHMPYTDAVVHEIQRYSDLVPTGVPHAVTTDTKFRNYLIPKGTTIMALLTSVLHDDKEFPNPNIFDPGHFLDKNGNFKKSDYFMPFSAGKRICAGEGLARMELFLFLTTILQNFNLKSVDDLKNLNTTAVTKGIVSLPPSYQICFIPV
# Description: Inhibition of CYP2C8 in human liver microsomes by LC-MS/MS analysis
# [18] = in vitro; conditions: rat, hepatocytes
# Description: Intrinsic clearance in rat hepatocytes
# [19] = in vitro; conditions: human, human liver microsomes
# [20] = physchem; conditions: octanol/phosphate buffer, pH 7.4
# Description: Lipophilicity, log D of the compound in octanol/phosphate buffer at pH 7.4 by shake flask method
# [21] = in vivo; conditions: cynomolgus monkey, iv, 1 mg/kg; remark: listed apart in the source
# Description: Half life in cynomolgus monkey at 1 mg/kg, iv
# [22] = tested on: LoVo; experiment: cells; conditions: Homo sapiens
# Description: Antiproliferative activity against human LoVo cells assessed as inhibition of cell growth incubated for 7 days by CellTiter-Glo 2.0 assay
# [23] = molecular target: T2, Cytochrome P450 2B6 (Homo sapiens, UniProt P20813)
# T2 sequence (P20813 whole entry): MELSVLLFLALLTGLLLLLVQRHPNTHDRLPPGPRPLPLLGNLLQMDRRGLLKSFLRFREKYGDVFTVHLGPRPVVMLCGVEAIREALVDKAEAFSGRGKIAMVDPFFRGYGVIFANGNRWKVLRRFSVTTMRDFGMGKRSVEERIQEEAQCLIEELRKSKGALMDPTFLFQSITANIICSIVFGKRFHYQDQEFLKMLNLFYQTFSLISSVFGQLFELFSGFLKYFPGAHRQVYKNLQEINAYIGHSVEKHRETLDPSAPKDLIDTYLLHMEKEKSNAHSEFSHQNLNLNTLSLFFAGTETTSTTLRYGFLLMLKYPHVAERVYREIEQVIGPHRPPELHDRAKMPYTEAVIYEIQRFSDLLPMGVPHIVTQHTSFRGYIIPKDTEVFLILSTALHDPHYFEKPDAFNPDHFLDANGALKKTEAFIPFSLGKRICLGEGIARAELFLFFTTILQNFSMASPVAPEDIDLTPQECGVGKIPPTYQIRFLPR
# Description: Inhibition of CYP2B6 in human liver microsomes by LC-MS/MS analysis
# [24] = physchem; conditions: aqueous buffer, pH 7.4
# Description: Thermodynamic solubility of the compound in aqueous buffer at pH 7.4
# [25] = tested on: NCI-H23; experiment: cells; conditions: Homo sapiens
# Description: Antiproliferative activity against human NCI-H23 cells assessed as inhibition of cell growth incubated for 7 days by CellTiter-Glo 2.0 assay
# [26] = in vitro; conditions: cynomolgus monkey, hepatocytes
# Description: Intrinsic clearance in cynomolgus monkey hepatocytes
# [27] = in vitro; conditions: human, Caco-2
# Description: Apparent permeability of the compound across apical to basolateral side in human Caco-2 cells at 10 uM
# [28] = in vivo; conditions: CD-1, mouse, po, 30 mg/kg
# [29] = molecular target: Cytochrome P450 3A4 (Homo sapiens, UniProt P08684)
# [30] = in vivo; conditions: beagle, dog, iv, 1 mg/kg
# Description: Half life in Beagle dog at 1 mg/kg, iv
# [31] = molecular target: Cytochrome P450 2C9 (Homo sapiens, UniProt P11712)
# [32] = tested on: LoVo; experiment: animal or person; conditions: Mus musculus, po, 480 h, read-out: TGI
# [33] = molecular target: Phosphatidylinositol 4,5-bisphosphate 3-kinase catalytic subunit gamma isoform (Homo sapiens, UniProt P48736)
# Description: Inhibition of PI3Kgamma (unknown origin) by ADP-Glo assay
# [34] = in vivo; conditions: Sprague-Dawley, rat, iv, 1 mg/kg; remark: listed apart in the source
# [35] = in vivo; conditions: Beagle, dog, po, 10 mg/kg
# [36] = in vivo; conditions: CD-1, mouse, iv, 1 mg/kg; remark: listed apart in the source
# Description: Volume of distribution at steady state in CD-1 mouse at 1 mg/kg, iv
# [37] = molecular target: Serine/threonine-protein kinase mTOR (Homo sapiens, UniProt P42345)
# Description: Inhibition of mTOR (unknown origin) by LANCE Ultra assay
# Chain of CYP3A4 (P08684 whole entry): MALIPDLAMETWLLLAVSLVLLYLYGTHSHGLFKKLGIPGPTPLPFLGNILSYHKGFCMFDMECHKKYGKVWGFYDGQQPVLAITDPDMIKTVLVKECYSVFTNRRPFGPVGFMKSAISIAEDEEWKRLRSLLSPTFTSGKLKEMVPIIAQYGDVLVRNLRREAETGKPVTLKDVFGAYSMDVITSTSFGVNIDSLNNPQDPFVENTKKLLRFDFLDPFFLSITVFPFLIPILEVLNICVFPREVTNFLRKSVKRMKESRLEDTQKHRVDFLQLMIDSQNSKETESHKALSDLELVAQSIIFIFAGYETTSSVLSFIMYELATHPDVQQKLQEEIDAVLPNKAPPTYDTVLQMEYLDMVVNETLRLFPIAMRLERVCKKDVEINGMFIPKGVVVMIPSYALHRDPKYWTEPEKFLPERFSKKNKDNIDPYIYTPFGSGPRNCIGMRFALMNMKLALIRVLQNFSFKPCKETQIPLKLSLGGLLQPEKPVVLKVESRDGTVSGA
# Chain of Cytochrome P450 3A4 (P08684 whole entry): as above
# Chain of Voltage-gated inwardly rectifying potassium channel KCNH2 (Q12809 whole entry): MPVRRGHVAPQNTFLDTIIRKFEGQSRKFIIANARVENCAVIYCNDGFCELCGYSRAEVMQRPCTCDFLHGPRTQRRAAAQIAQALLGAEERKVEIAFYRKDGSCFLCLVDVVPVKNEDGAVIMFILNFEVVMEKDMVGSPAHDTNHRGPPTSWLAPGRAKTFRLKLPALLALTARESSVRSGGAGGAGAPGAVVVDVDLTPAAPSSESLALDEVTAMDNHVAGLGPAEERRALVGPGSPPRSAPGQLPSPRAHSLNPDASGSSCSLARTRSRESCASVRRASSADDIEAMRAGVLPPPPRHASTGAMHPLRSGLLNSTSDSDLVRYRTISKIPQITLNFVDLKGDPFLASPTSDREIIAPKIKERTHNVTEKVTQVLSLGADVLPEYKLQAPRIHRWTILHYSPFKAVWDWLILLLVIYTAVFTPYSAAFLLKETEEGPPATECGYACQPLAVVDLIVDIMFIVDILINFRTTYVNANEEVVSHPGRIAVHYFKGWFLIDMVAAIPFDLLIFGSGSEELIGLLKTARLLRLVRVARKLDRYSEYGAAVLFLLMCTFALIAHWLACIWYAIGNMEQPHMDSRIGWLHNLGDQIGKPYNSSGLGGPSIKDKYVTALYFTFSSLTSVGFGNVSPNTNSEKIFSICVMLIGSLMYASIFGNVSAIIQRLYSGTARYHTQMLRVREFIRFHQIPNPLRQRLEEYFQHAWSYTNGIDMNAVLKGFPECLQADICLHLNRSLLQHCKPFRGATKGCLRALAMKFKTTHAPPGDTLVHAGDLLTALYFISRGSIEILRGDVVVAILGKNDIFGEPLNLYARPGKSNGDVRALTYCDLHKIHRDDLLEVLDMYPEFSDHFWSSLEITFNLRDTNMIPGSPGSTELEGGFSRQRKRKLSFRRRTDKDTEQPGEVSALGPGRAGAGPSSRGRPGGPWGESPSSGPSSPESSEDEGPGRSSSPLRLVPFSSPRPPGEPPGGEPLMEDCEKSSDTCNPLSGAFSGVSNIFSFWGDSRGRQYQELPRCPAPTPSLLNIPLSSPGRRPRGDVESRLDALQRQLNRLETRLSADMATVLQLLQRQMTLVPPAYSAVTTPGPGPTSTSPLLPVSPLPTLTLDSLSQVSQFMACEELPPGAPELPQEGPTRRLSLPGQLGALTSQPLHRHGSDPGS
# Chain of Phosphatidylinositol 4,5-bisphosphate 3-kinase catalytic subunit alpha isoform (P42336 whole entry, canonical isoform): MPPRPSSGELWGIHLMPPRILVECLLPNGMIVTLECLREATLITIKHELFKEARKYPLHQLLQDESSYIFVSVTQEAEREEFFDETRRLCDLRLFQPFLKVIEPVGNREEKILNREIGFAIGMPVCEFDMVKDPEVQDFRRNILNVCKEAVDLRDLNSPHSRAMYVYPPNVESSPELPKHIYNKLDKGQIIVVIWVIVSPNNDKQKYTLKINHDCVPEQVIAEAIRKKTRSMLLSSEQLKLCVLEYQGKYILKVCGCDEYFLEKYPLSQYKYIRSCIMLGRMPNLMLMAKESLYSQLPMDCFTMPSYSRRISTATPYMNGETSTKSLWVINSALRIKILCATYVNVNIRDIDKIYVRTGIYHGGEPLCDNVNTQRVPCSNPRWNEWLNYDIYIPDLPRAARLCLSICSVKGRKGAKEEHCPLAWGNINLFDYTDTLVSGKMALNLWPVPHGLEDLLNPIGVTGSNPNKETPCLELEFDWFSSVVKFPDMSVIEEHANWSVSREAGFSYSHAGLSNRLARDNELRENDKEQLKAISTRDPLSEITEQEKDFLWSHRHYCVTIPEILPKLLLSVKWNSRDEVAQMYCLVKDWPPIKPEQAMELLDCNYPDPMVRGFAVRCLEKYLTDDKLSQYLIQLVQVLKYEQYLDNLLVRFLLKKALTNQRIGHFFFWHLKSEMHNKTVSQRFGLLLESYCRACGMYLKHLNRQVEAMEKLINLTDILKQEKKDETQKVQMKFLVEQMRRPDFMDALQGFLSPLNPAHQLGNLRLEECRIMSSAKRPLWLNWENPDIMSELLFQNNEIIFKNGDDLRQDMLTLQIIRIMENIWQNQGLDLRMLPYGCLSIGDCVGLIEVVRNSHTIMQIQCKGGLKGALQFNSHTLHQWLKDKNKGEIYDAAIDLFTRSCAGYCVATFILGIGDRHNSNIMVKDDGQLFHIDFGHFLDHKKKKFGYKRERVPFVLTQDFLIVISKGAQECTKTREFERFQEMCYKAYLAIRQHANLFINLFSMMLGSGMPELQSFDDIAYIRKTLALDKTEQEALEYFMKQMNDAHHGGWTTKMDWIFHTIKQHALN
# Chain of Cytochrome P450 2D6 (P10635 whole entry): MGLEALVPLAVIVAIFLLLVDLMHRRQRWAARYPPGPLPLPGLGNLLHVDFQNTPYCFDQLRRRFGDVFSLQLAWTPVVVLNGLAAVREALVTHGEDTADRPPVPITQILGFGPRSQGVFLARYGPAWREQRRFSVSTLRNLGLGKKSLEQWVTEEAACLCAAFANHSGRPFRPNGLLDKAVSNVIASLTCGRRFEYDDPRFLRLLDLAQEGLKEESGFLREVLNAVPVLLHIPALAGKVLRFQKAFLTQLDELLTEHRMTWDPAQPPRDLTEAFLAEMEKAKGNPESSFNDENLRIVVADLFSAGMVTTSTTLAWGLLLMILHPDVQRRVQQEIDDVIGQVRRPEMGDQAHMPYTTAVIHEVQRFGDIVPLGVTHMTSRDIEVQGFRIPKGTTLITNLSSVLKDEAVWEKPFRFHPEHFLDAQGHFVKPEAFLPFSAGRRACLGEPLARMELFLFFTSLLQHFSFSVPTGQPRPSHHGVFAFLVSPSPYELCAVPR
# Chain of Phosphatidylinositol 4,5-bisphosphate 3-kinase catalytic subunit gamma isoform (P48736 whole entry, canonical isoform): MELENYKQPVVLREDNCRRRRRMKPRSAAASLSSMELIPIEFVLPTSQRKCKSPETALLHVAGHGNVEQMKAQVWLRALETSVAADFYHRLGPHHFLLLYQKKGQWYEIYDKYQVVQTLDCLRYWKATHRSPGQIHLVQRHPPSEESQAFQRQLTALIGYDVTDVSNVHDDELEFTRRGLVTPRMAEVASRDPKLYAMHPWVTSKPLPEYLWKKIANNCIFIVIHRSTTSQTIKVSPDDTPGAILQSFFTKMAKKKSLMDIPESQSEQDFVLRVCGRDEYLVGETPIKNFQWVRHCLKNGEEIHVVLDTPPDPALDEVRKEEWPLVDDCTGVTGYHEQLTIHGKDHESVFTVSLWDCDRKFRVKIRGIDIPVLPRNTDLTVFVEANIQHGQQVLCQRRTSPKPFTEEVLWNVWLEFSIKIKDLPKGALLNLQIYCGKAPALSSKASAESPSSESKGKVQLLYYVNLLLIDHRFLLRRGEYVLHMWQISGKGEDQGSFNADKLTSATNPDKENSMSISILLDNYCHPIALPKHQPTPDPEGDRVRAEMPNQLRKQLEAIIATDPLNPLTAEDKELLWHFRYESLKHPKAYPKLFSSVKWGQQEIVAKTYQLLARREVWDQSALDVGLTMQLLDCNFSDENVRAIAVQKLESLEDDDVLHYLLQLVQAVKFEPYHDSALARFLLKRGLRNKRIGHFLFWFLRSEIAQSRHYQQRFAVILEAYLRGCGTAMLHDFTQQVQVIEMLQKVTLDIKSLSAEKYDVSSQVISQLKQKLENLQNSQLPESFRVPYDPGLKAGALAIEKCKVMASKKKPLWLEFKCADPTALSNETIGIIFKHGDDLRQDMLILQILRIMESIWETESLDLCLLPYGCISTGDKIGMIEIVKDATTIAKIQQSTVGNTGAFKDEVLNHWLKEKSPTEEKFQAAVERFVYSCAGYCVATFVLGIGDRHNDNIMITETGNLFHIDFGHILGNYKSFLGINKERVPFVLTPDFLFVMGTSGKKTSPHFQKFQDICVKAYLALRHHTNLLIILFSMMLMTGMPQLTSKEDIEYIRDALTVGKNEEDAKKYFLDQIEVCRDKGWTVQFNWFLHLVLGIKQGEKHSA
# Chain of Cytochrome P450 2C9 (P11712 whole entry): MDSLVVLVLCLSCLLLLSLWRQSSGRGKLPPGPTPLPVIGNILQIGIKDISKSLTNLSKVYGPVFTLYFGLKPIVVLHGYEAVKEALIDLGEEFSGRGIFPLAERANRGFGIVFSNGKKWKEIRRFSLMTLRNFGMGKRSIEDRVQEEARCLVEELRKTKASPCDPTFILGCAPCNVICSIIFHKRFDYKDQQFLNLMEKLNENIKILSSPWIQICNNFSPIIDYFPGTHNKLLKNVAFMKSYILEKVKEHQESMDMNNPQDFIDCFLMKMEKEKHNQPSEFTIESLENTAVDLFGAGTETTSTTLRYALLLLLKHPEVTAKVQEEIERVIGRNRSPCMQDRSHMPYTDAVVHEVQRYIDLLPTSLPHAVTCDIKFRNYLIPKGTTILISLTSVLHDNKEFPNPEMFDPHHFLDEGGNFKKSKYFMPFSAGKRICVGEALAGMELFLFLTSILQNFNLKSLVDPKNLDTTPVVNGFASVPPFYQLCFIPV
structure (smiles),measurement,setting,value
C[C@@H]1COCCN1c1cc(N=[S@@](C)(=O)C2CC2)nc(-c2ccnc(N)c2)n1,"fraction unbound at 5 h, 5 µM",[1],0.48
same,"inhibition at 0.5 h, 10 µM",[2],0.96%
same,IC50,[3],> 10 µM
same,Vd,[4],2 L/kg
same,IC50,[5],> 50 µM
same,half-life,[6],2.8 h
same,IC50,[7],> 10 µM
same,Tmax,[8],0.83 h
same,half-life,[9],0.6 h
same,IC50,[10],29 µM
same,CLint scaled,[11],8 mL/min/kg
same,CLint scaled,[12],22 mL/min/kg
same,AUC(0-t),[13],4.25 µM·h
same,bioavailability,[14],58%
same,bioavailability,[15],77%
same,solubility thermodynamic,[16],> 13000 µg/mL
same,IC50,[17],> 10 µM
same,CLint scaled,[18],29 mL/min/kg
same,"CLint scaled at 0.75 h, 1 µM",[19],2.3 mL/min/kg
same,logD,[20],1.62
same,half-life,[21],1.3 h
same,EC50,[22],1.15 µM
same,IC50,[23],> 10 µM
same,solubility thermodynamic,[24],1500 µg/mL
same,EC50,[25],0.14 µM
same,CLint scaled,[26],10 mL/min/kg
same,Papp A→B at 10 µM,[27],17 ×10⁻⁶ cm/s
same,AUC(0-t),[28],25.3 µM·h
same,IC50,[29],> 10 µM
same,half-life,[30],3.1 h
same,IC50,[31],> 10 µM
same,inhibition in vivo at 30 mg/kg,[32],72%
same,IC50,[33],> 50 µM
same,Vd,[34],3.9 L/kg
same,Cmax,[35],1930 nM
same,Vd,[36],4.9 L/kg
same,IC50,[37],0.968 µM
